Test results published in patent US20060045906A1, “Compositions and methods for activating protein synthesis and deactivating catabolic processes in skeletal muscle” (priority 2004, published 2006).
Values joined by “and” are separate entries in the source; they are usually repeats but may differ in a detail not shown here. Equal entries are not always repeated.

Columns and labels:
[1] = human, in vivo
Experimental: (§1) Measurement of creatine levels in the plasma preferably involves removing venous blood from the dorsal surface of a heated hand immediately before and 20, 40, and 60 min after the ingestion of a supplement. In addition, urine may be collected before and on the day of ingestion of a supplement. Plasma and urine creatine may be measured using high performance liquid chromatography and serum insulin was measured using a radioimmunoassay technique, an example of which is described in U.S. Pat. No. 5,968,900, which is fully incorporated herein by reference.
(§2) Protocol: The volunteers were required to attend to the lab for 3 trials. Each consisted of an afternoon arm, and a morning arm. Each arm lasted for approximately 4 hours. The volunteers were asked to relax on a bed. A baseline blood sample was taken. Each solution was administered via a nasogastric tube (mean time of administration was approximately 7 minutes). Half-way through the administration, the stop clock was started. After the three hour protocol, a second solution was administered. The third solution was administered in the following morning arm of the trial. Each trial was separated by at least 12 days.
(§3) Each solution was administered via a nasogastric tube three times over 24 hours. A total amount of 15 g or Cr was administered.
Blood sampling: Blood samples were collected for three hours after administration of the solution. […]

serum insulin = assay: Serum insulin concentration and area under the concentration time curve after oral challenge (nasogastric) in healthy male volunteers; format: in vivo, human
Experimental: as §1
Aim: The aim of this study was to identify a supplement that would optimize the augmentation of Cr retention after its supplementation, by increasing the insulinotropic effect, whilst consuming a lower carbohydrate load.
Study design: Randomized, double-blind, placebo controlled, cross-over design.
Volunteers: 7 healthy male volunteers. All volunteers were eligible to participate after satisfactory results from the medical screening.
as §2, §3
Blood sampling: Blood samples were collected for three hours after administration of the solution. Eleven blood samples obtained (including baseline sample). For the first hour after administration of the solution, a blood sample was obtained at 15 minute intervals. During the second and third hour of sampling, the intervals were increased to 20 minutes. Approximately 3 ml of blood was transferred to a lithium heparin containing tube and a further 3 ml were allowed to clot for plasma Cr and creatinine (Crn), and serum insulin analysis respectively.
Statistical analysis: A two-way repeated measure ANOVA statistical test was used. Significance was set at p<0.05. When a significant difference was observed, Fisher's post hoc analysis was performed in order to locate the difference. All individual results are included in the appendix.

[2] = Urinary creatine excretion (24 h collections: 0-24, 24-48, 0-48 h) after administration of the solutions; format: in vivo, human; details: p<0.05
Experimental: as §1
Urinary Creatine Content:
Three 24 h hour urinary collections were obtained from each volunteer for each arm of the study. The first collection (baseline) was completed prior to administration of the solution. The second collection (0-24 h) was initiated immediately after the administration of the first solution, until 24 h post administration. […] The volume of the urine excreted was recorded and a 5 ml sample was frozen at −20° C. until analysis. The samples were analyzed for Cr and Crn.
To calculate the total creatine (TCr) the Cr and Crn were added together. The TCr increase was calculated by subtracting the baseline TCr from the 0-24 h excretion and/or the 24-48 h excretion. The 0-48 h content was calculated by adding the 0-24 h TCr with the 24-48 h TCr increase in excretion. […]

[3] = tested on: skeletal muscle total creatine; details: cited from earlier work

## CN(CC(=O)O)C(=N)N [C, creatine]
[1]
  plasma creatine AUC compared to CHO and PAC: significantly greater
Serum insulin; FIG. 1, first oral challenge, from 15-140 min
  serum insulin concentration compared to PAC: significantly lower
Serum insulin; FIG. 1, first oral challenge, from 15-160 min
  serum insulin concentration compared to CHO: significantly lower
Serum insulin; FIG. 2, third oral challenge, from 15-160 min
  serum insulin concentration compared to CHO and PAC: significantly lower
Serum insulin; FIG. 3, 80 min following the first oral challenge, p=0.02
  serum insulin AUC compared to CHO and PAC: significantly lower
Serum insulin; FIG. 4, 180 min following the first oral challenge, p=0.015
  serum insulin AUC compared to CHO and PAC: significantly lower
Serum insulin; FIG. 5, 80 min following the third oral challenge, p<0.001
  serum insulin AUC compared to CHO and PAC: significantly lower
Serum insulin; FIG. 6, 180 min following the first oral challenge (so in the source), p<0.001
  serum insulin AUC compared to CHO and PAC: significantly lower
Serum insulin; first oral challenge, 0-80 min (as headed), individual subject
  insulin area under the time curve response: −235 mU/l/min and −127 mU/l/min and −112 mU/l/min and −166 mU/l/min and −146 mU/l/min and −714 mU/l/min and −566 mU/l/min
Serum insulin; first oral challenge, 0-80 min (as headed), mean of 7 subjects
  insulin area under the time curve response: −295 mU/l/min
Serum insulin; first oral challenge, 0-180 min (as headed), individual subject
  insulin area under the time curve response: −32 mU/l/min and −48 mU/l/min and −50 mU/l/min and 21 mU/l/min and −11 mU/l/min and −299 mU/l/min and −186 mU/l/min
Serum insulin; first oral challenge, 0-180 min (as headed), mean of 7 subjects
  insulin area under the time curve response: −86 mU/l/min
Serum insulin; first oral challenge, 45 min, individual subject
  serum insulin concentration: 9.02 mU/l and 7.85 mU/l and 9.58 mU/l and 10.16 mU/l and 9.61 mU/l and 9.34 mU/l and 11.85 mU/l
Serum insulin; first oral challenge, 45 min, mean of 7 subjects
  serum insulin concentration: 9.63 mU/l
Serum insulin; first oral challenge, 60 min, individual subject
  serum insulin concentration: 9.17 mU/l and 7.54 mU/l and 9.74 mU/l and 8.51 mU/l
Serum insulin; third oral challenge, 0-80 min, individual subject
  insulin area under the time curve response: 10 mU/l/min (2×) and −7 mU/l/min and −23 mU/l/min and 132 mU/l/min and −34 mU/l/min and −18 mU/l/min
Serum insulin; third oral challenge, 0-80 min, mean of 7 subjects
  insulin area under the time curve response: 10 mU/l/min
Serum insulin; third oral challenge, 0-180 min, individual subject
  insulin area under the time curve response: 274 mU/l/min (2×) and −63 mU/l/min and −109 mU/l/min and 195 mU/l/min and 1406 mU/l/min and −99 mU/l/min
Serum insulin; third oral challenge, 0-180 min, mean of 7 subjects
  insulin area under the time curve response: 268 mU/l/min
Serum insulin; third oral challenge, 0 min, individual subject
  serum insulin concentration: 8.91 mU/l (2×) and 8.31 mU/l and 10.38 mU/l and 9.64 mU/l and 10.31 mU/l and 8.65 mU/l
Serum insulin; third oral challenge, 0 min, mean of 7 subjects
  serum insulin concentration: 9.30 mU/l
Serum insulin; third oral challenge, 15 min, individual subject
  serum insulin concentration: 8.94 mU/l (2×) and 7.78 mU/l and 10.23 mU/l and 9.84 mU/l and 10.29 mU/l and 11.08 mU/l
Serum insulin; third oral challenge, 15 min, mean of 7 subjects
  serum insulin concentration: 9.59 mU/l
Serum insulin; third oral challenge, 30 min, individual subject
  serum insulin concentration: 9.44 mU/l (2×) and 7.90 mU/l and 10.92 mU/l and 10.89 mU/l and 9.80 mU/l and 11.61 mU/l
Serum insulin; third oral challenge, 30 min, mean of 7 subjects
  serum insulin concentration: 10.00 mU/l
Serum insulin; third oral challenge, 45 min, individual subject
  serum insulin concentration: 8.87 mU/l (2×) and 7.24 mU/l and 9.56 mU/l and 9.07 mU/l and 10.07 mU/l and 9.32 mU/l
Serum insulin; third oral challenge, 45 min, mean of 7 subjects
  serum insulin concentration: 9.00 mU/l
Serum insulin; third oral challenge, 60 min, individual subject
  serum insulin concentration: 8.92 mU/l (2×) and 7.99 mU/l and 10.03 mU/l and 8.61 mU/l and 9.69 mU/l and 10.81 mU/l
Serum insulin; third oral challenge, 60 min, mean of 7 subjects
  serum insulin concentration: 9.28 mU/l
Serum insulin; third oral challenge, 80 min, individual subject
  serum insulin concentration: 9.06 mU/l (2×) and 8.54 mU/l and 9.79 mU/l and 9.45 mU/l and 10.22 mU/l and 8.93 mU/l
Serum insulin; third oral challenge, 80 min, mean of 7 subjects
  serum insulin concentration: 9.29 mU/l
Serum insulin; third oral challenge, 100 min, individual subject
  serum insulin concentration: 8.54 mU/l (2×) and 8.56 mU/l and 9.59 mU/l (2×) and 9.34 mU/l and 9.38 mU/l
Serum insulin; third oral challenge, 100 min, mean of 7 subjects
  serum insulin concentration: 9.08 mU/l
Serum insulin; third oral challenge, 120 min, individual subject
  serum insulin concentration: 8.76 mU/l (2×) and 8.20 mU/l and 10.07 mU/l and 8.48 mU/l and 10.27 mU/l and 9.10 mU/l
Serum insulin; third oral challenge, 120 min, mean of 7 subjects
  serum insulin concentration: 9.09 mU/l
Serum insulin; third oral challenge, 140 min, individual subject
  serum insulin concentration: 8.29 mU/l (2×) and 8.44 mU/l and 8.57 mU/l and 8.55 mU/l and 8.56 mU/l and 9.20 mU/l
Serum insulin; third oral challenge, 140 min, mean of 7 subjects
  serum insulin concentration: 8.56 mU/l
Serum insulin; third oral challenge, 160 min, individual subject
  serum insulin concentration: 8.69 mU/l (2×) and 8.34 mU/l and 8.66 mU/l and 10.01 mU/l and 9.02 mU/l and 9.73 mU/l
Serum insulin; third oral challenge, 160 min, mean of 7 subjects
  serum insulin concentration: 9.02 mU/l
Serum insulin; third oral challenge, 180 min, individual subject
  serum insulin concentration: 8.58 mU/l (3×) and 8.61 mU/l and 8.56 mU/l and 9.43 mU/l and 9.04 mU/l
Serum insulin; third oral challenge, 180 min, mean of 7 subjects
  serum insulin concentration: 8.77 mU/l
[2]; FIG. 11, 0-24 h
  urinary creatine content compared to CHO and PAC: significantly greater
[2]; FIG. 13, 0-48 h following supplementation
  urinary creatine content compared to CHO and PAC: significantly greater

## CN(CC(=O)O)C(=N)N [carbohydrate free creatine, creatine]
[3]; 5 g creatine four times a day for 5 days
  increase of total muscle creatine: about 20 mmol/kg dm

## CN(CC(=O)O)C(=N)N [creatine, N-methyl-N-guanyl glycine]
[3]; 20 g/day for 5 days
  increase of muscle total creatine content, on average: 20%
[3]; dietary creatine supplementation
  increase in human skeletal muscle total creatine (phosphocreatine and free creatine) stores: 20-50%
